Series [1] relates to PBMC. Kind of series: Antiinflammatory activity in human PBMC assessed as inhibition of LPS-stimulated IL-6 production incubated for 30 mins prior to LPS-challenge measured after overnight incubation. In kind it is functional, cell-based.
The target of series [2] is T1, Bromodomain-containing protein 4 (Homo sapiens, UniProt O60885). Kind of series: Inhibition of recombinant BRD4 bromodomain 1 (unknown origin) using histone H4 peptide as substrate incubated for 1 hr under dark condition by HTRF assay.
Series [3] in a line: Permeability of the compound in artificial membrane. It counts as physicochemical, cell membranes. As to conditions: PAMPA; read-out: permeability. (In general: PAMPA measures passive passage across an artificial lipid membrane.)
Series [4] addresses T2, Bromodomain-containing protein 3 (Homo sapiens, UniProt Q15059). In words: Binding affinity to BRD3 in human HL60 cell nuclear extracts assessed as inhibition of protein binding to N-I-BET functionalised sepharose beads at 10 uM after 1 hr by coomassie staining-based staining-based chemoproteomic profiling. To be noted: HL-60.
Target sequence in this assay (Q15059 2-726 limits assumed): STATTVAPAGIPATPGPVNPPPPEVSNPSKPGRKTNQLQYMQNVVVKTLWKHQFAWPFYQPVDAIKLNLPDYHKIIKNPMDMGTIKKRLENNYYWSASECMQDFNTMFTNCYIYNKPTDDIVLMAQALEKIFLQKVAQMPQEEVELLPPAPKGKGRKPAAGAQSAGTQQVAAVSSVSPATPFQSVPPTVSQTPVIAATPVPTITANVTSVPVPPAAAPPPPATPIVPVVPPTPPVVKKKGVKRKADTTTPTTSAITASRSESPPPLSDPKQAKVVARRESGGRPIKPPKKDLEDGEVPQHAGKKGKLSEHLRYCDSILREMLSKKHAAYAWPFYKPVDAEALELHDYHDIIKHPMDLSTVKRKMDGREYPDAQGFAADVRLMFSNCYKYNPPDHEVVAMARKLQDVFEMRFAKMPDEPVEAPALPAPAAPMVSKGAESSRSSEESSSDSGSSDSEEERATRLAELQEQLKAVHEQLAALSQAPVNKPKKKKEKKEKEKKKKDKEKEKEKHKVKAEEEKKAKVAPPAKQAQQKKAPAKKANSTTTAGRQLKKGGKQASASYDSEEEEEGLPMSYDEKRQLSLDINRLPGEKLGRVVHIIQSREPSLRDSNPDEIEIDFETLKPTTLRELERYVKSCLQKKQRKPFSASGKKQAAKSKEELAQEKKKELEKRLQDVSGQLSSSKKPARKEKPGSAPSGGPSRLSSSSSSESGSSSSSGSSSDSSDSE
For series [5], the system named is HL-60. Kind of series: cells. To be noted: Homo sapiens, HL-60, 72 h. It counts as functional, cell-based.
Description: Growth inhibition of human HL60 cells assessed as ATP level after 72 hrs by CellTiterGlo assay
Series [6] in a line: Solubility of the compound by chemiluminescent nitrogen detection method. In kind it is physicochemical.
The target of series [7] is T1, Bromodomain-containing protein 4. In words: Binding affinity to BRD4 in human HL60 cell nuclear extracts assessed as inhibition of protein binding to N-I-BET functionalised sepharose beads at 10 uM after 1 hr by coomassie staining-based staining-based chemoproteomic profiling. To be noted: HL-60.
Series [8] has as its system PBMC. Kind of series: Antiinflammatory activity in human PBMC assessed as inhibition of LPS-stimulated TNF-alpha production incubated for 30 mins prior to LPS-challenge measured after overnight incubation. It counts as functional, cell-based.
For series [9], the target named is Histone deacetylase 9 (Homo sapiens, UniProt Q9UKV0).
Description: Inhibition of HDAC9 (unknown origin)
Series [10] deals with T3, Histone deacetylase 1 (Homo sapiens, UniProt Q13547).
Description: Inhibition of HDAC1 (unknown origin)
Series [11] deals with T4, Bromodomain-containing protein 2 (Homo sapiens, UniProt P25440). Kind of series: Binding affinity to BRD2 in human HL60 cell nuclear extracts assessed as inhibition of protein binding to N-I-BET functionalised sepharose beads at 10 uM after 1 hr by coomassie staining-based chemoproteomic profiling. To be noted: HL-60.
Target sequence in this assay (P25440 whole entry, looked up): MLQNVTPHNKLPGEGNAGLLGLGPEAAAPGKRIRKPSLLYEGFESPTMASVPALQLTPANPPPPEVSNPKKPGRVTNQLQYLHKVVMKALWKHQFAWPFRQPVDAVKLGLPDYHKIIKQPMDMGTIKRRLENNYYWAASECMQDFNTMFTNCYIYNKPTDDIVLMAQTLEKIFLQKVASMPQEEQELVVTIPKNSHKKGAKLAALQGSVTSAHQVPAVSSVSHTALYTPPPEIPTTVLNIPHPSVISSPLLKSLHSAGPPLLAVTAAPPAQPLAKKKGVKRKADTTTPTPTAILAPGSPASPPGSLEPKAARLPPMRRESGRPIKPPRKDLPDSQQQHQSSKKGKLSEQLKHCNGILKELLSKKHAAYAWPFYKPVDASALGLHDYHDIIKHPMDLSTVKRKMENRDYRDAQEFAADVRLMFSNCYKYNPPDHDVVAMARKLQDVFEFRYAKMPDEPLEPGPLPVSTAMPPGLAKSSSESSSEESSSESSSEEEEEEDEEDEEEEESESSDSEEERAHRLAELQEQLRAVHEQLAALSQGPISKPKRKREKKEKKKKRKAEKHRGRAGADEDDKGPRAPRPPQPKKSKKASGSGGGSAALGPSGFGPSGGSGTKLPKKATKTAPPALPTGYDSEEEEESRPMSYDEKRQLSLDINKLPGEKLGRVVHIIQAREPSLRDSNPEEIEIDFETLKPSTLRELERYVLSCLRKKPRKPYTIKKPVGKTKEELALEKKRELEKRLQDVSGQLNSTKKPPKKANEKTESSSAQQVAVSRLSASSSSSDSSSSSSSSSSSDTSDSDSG
Series [12] deals with MV4-11. In words: cells. In kind it is functional, cell-based. As to conditions: Homo sapiens, MV4-11, 72 h.
Description: Growth inhibition of human MV4-11 cells assessed as ATP level after 72 hrs by CellTiterGlo assay
Series [13] can be described thus: cells. In kind it is functional. As to conditions: Homo sapiens, 72 h.
Description: Growth inhibition of human 11060 cells assessed as ATP level after 72 hrs by CellTiterGlo assay
For series [14], the target named is Histone deacetylase 2 (Homo sapiens, UniProt Q92769).
Description: Binding affinity to HDAC2 in human HL60 cell nuclear extracts assessed as inhibition of enzyme binding to N-SAHA functionalised sepharose beads after 1 hr by coomassie staining-based chemoproteomic competition binding assay
In series [15] the target is Histone deacetylase 3 (Homo sapiens, UniProt O15379).
Description: Binding affinity to HDAC3 in human HL60 cell nuclear extracts assessed as inhibition of enzyme binding to N-SAHA functionalised sepharose beads after 1 hr by coomassie staining-based chemoproteomic competition binding assay
In series [16] the target is T1, Bromodomain-containing protein 4. In words: Inhibition of BRD4 bromodomain 2 (338 to 437) (unknown origin) by surface plasmon resonance analysis. (Surface plasmon resonance follows binding to a sensor surface in real time, without labels.)
Series [17] concerns the target T5, Polyamine deacetylase HDAC10 (Homo sapiens, UniProt Q969S8).
T5 sequence (Q969S8 whole entry): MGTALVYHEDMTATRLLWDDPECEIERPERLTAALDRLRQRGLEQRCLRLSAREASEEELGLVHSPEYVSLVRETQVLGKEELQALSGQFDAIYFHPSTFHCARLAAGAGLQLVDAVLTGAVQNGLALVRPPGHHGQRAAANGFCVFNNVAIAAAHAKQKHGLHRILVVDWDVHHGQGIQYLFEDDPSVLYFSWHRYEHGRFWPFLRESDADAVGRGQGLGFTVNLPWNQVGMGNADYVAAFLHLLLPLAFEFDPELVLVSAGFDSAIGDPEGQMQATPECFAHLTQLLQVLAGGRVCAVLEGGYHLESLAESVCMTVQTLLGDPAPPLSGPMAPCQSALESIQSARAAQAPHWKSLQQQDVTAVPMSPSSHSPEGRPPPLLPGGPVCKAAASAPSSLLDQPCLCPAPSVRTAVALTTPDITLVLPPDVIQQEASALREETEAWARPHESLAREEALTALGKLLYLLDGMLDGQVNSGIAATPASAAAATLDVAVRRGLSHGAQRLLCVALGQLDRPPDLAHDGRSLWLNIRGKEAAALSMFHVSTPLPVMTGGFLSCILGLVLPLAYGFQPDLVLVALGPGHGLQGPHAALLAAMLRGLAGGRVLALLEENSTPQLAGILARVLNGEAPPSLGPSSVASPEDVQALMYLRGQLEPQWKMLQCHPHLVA
Description: Binding affinity to HDAC10 in human HL60 cell nuclear extracts assessed as inhibition of enzyme binding to N-SAHA functionalised sepharose beads after 1 hr by coomassie staining-based chemoproteomic competition binding assay

The target in series [18] is T6, Protein deacetylase HDAC6 (Homo sapiens, UniProt Q9UBN7).
T6 sequence (Q9UBN7 whole entry): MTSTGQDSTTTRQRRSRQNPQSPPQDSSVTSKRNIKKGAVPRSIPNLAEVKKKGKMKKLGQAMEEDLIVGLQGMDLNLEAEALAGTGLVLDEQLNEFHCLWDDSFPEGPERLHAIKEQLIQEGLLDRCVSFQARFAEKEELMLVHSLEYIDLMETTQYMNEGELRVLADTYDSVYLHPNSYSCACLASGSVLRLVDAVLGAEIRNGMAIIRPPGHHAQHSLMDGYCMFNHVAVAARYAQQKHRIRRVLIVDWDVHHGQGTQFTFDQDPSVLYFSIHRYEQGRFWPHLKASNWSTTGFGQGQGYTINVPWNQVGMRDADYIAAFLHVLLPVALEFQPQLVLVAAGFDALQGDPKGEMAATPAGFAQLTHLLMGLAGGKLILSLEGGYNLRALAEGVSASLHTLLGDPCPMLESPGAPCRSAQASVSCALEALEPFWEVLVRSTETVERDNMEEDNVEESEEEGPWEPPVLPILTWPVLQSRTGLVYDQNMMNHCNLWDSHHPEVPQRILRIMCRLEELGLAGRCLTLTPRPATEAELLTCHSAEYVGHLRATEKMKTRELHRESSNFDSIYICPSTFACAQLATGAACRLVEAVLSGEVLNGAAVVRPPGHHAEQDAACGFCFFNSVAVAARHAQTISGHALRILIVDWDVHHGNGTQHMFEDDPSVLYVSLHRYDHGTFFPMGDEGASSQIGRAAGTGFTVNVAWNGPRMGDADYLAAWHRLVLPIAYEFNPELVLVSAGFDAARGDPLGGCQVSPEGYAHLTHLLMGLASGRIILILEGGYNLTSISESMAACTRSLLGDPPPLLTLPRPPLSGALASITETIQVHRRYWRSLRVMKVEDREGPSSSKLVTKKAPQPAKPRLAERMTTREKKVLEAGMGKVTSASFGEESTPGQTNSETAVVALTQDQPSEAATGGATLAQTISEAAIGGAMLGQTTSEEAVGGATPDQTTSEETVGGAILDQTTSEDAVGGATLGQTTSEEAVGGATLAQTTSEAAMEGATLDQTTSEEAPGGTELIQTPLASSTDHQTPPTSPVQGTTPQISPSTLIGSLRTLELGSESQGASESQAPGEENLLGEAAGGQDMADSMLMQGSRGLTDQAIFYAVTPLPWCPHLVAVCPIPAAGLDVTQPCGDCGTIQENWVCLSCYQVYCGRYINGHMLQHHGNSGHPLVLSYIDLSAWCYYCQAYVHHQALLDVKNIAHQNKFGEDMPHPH
Description: Binding affinity to HDAC6 in human HL60 cell nuclear extracts assessed as inhibition of enzyme binding to N-SAHA functionalised sepharose beads after 1 hr by coomassie staining-based chemoproteomic competition binding assay

For series [19], the target named is T4, Bromodomain-containing protein 2. In words: Binding affinity to BRD2 in human HL60 cell nuclear extracts assessed as inhibition of protein binding to N-I-BET functionalised sepharose beads after 1 hr by coomassie staining-based chemoproteomic competition binding assay. The arrangement: species or system HL-60. As to conditions: read-out: Kd(app).
Target sequence in this assay (P25440 whole entry): as the sequence (P25440 whole entry, looked up) above
Series [20] deals with T7, Histone deacetylase 8 (Homo sapiens, UniProt Q9BY41).
T7 sequence (Q9BY41 whole entry): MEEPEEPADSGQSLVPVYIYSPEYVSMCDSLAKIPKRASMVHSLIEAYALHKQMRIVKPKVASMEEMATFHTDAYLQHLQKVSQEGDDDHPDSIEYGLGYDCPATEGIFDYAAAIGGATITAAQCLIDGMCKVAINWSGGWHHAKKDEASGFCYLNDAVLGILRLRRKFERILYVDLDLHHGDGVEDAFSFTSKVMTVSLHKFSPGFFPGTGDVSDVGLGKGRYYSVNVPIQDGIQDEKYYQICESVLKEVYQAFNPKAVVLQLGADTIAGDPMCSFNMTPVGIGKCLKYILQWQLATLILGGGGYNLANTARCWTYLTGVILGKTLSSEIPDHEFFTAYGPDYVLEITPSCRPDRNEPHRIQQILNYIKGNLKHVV
Description: Binding affinity to HDAC8 in human HL60 cell nuclear extracts assessed as inhibition of enzyme binding to N-SAHA functionalised sepharose beads after 1 hr by coomassie staining-based chemoproteomic competition binding assay

For series [21], the target named is T1, Bromodomain-containing protein 4. In words: Inhibition of His6-tagged BRD4 (1 to 477) (unknown origin) by surface plasmon resonance analysis.
For series [22], the target named is T3, Histone deacetylase 1. This is another data set of the same source.
Description: Binding affinity to HDAC1 in human HL60 cell nuclear extracts assessed as inhibition of enzyme binding to N-SAHA functionalised sepharose beads after 1 hr by coomassie staining-based chemoproteomic competition binding assay
For series [23], the target named is T2, Bromodomain-containing protein 3. Kind of series: Binding affinity to BRD3 in human HL60 cell nuclear extracts assessed as inhibition of protein binding to N-I-BET functionalised sepharose beads after 1 hr by coomassie staining-based chemoproteomic competition binding assay. To be noted: read-out: Kd(app). The arrangement: species or system HL-60.
Target sequence in this assay (Q15059 whole entry): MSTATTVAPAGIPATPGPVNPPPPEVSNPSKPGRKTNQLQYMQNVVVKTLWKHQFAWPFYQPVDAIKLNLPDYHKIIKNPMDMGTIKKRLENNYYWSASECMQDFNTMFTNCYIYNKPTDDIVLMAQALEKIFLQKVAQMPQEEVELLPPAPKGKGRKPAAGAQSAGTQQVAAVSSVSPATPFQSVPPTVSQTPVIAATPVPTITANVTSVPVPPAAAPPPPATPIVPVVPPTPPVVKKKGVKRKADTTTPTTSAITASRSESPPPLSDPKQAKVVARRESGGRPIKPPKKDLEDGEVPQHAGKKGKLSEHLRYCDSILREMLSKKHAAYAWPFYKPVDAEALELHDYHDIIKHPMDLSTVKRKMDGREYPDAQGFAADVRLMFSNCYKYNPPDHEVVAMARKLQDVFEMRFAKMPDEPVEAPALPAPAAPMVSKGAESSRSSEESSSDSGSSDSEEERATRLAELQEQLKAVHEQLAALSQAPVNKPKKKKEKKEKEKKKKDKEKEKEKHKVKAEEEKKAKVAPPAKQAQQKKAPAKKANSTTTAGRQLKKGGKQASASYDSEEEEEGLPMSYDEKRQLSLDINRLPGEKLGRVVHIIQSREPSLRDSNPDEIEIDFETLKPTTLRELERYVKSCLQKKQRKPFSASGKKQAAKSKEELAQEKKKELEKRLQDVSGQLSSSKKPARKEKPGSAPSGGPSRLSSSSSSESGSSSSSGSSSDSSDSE
Series [24] addresses T6, Protein deacetylase HDAC6. The source holds these as a separate data set.
Description: Inhibition of HDAC6 (unknown origin)
For series [25], the species on record is Homo sapiens. Kind of series: Inhibition of BET in human 11060 cells assessed as downregulation of c-Myc expression level at IC90 after 6 to 24 hrs by Western blotting analysis. It counts as cell-based. Background: A western blot detects proteins with antibodies after separation by electrophoresis.
The target in series [26] is T1, Bromodomain-containing protein 4. Kind of series: Binding affinity to BRD4 in human HL60 cell nuclear extracts assessed as inhibition of protein binding to N-I-BET functionalised sepharose beads after 1 hr by coomassie staining-based staining-based chemoproteomic competition assay. To be noted: read-out: Kd(app). The arrangement: species or system HL-60.

Data on seven compounds can be found in ChEMBL document CHEMBL3217474, “The structure based design of dual HDAC/BET inhibitors as novel epigenetic probes” (Medchemcomm, 2014).

Converted amounts (≈) assume the structure as drawn. The source made the active and inactive calls. The calls are words filed in the database; no cut-off is given here.

Chain of Histone deacetylase 9 (Q9UKV0 whole entry): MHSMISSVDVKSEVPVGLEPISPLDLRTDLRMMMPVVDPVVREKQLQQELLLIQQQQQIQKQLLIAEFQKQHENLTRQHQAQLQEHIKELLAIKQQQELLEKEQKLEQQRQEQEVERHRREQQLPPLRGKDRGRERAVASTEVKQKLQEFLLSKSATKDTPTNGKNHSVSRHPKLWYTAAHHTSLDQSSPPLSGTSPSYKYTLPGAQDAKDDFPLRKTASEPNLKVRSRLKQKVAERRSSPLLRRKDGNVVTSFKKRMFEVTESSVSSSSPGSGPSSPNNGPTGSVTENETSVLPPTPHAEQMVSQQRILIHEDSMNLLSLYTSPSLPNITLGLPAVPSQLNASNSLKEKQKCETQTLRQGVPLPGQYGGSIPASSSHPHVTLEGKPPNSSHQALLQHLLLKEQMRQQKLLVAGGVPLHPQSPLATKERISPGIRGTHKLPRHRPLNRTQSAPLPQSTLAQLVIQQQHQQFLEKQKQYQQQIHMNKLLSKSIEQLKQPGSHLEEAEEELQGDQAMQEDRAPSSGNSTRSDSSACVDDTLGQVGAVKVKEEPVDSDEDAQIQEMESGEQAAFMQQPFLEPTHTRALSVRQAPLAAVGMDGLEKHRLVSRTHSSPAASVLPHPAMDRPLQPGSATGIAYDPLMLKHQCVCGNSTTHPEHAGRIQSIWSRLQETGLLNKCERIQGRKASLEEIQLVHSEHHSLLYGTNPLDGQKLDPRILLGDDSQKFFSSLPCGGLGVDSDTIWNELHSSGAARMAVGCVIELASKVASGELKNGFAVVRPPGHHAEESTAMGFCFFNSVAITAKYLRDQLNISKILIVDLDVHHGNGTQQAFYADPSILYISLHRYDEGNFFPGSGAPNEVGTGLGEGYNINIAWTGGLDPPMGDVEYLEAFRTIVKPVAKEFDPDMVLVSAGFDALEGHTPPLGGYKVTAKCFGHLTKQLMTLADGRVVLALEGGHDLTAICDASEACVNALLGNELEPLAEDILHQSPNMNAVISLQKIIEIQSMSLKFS
T3 sequence (Q13547 whole entry): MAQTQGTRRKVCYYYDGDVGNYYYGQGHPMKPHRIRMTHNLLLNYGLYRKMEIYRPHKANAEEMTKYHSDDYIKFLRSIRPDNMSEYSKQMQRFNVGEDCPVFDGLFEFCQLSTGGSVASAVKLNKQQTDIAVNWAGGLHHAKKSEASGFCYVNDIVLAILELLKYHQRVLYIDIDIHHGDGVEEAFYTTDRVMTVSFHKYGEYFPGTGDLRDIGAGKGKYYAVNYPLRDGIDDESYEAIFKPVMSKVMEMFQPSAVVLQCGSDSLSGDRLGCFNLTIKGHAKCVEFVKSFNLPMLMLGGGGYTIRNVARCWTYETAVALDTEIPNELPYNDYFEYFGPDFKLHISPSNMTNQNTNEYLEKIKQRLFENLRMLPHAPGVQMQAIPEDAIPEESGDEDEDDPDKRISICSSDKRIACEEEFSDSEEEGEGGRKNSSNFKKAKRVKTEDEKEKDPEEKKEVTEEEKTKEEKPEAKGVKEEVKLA
Chain of Histone deacetylase 2 (Q92769 whole entry): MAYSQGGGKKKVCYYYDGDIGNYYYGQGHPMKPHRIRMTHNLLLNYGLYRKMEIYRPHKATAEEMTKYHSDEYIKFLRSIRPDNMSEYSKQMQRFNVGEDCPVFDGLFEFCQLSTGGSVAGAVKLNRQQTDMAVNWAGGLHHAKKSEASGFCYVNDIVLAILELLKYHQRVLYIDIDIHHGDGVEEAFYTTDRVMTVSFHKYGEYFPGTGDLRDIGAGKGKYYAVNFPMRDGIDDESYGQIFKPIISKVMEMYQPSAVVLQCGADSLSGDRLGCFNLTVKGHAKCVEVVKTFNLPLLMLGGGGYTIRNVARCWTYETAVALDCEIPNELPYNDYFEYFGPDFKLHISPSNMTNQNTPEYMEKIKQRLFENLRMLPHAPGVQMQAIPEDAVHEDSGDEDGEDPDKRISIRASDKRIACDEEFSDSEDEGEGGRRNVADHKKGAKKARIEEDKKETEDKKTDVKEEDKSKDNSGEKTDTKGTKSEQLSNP

For orientation: IC50 means the concentration that gives 50% inhibition. One may read the solubility as how much of the substance goes into solution per volume. Consider `CNCc1ccc(-c2ccc3c(c2)[C@H](NC(=O)OC(C)C)C[C@H](C)N3C(C)=O)cc1`, for which the IC50 was 5 nM in series [1]; 280 nM in series [2]; 381 nM in series [5]; 1 nM in [8]; > 100 µM in series [9]; > 100000 nM in [10]. In addition, the IC50 in [12] was 191 nM; in [13] it was 306 nM. For the same compound, the Papp in series [3] was found to be 17.4 ×10⁻⁶ cm/s. Further, the inhibition entry in series [4], in [7] and in series [11] was “Active” in each case. Also, the solubility in series [6] (read-out: solubility) came to 357 µM (≈ 146 µg/mL).

Turning to `CC(=O)N1c2ccc(NC(=O)CCCCCCC(=O)O)cc2[C@H](NC(=O)OC(C)C)C[C@@H]1C`, the inhibition result in series [4], in [7] and in series [11] was “Active” each time.

Turning to `CC(=O)N1c2ccc(-c3ccc(NC(=O)CCCCCCC(=O)NO)cc3)cc2[C@H](NC(=O)OC(C)C)C[C@@H]1C`, the IC50 was 219 nM in [1]; 50 nM in [2]; 764 nM in series [5]; 50 nM in series [8]; 34.9 µM in series [9]; 250 nM in series [10]. Besides, the IC50 came to 420 nM in series [24], 334 nM in [12] and 832 nM in series [13]. The Kd in [14] was 955 nM; in [15], 424 nM; in series [16], 53 nM; in [17], 207 nM; in [18], 236 nM; in [19], 32 nM. For the same compound, the Kd in series [20] is 328 nM; in series [21], 57 nM; in [22] it was 331 nM; in series [23] it was 70 nM; in series [26], 112 nM. For the same compound, the Papp in series [3] is < 0.3 ×10⁻⁶ cm/s. Further, the inhibition entry in series [4], in [7], in [11] and in series [25] was “Active” each time. In addition, the solubility in [6] (read-out: solubility) is 154 µM (≈ 85.1 µg/mL).

As for `CC(=O)N1c2ccc(NC(=O)CCCCCCC(=O)NO)cc2[C@H](NC(=O)OC(C)C)C[C@@H]1C`, the IC50 in series [2] was determined as 290 nM; in series [9] it was 61.7 µM; in [10], 250 nM; in [24], 1740 nM. Besides, the Papp in series [3] was < 0.3 ×10⁻⁶ cm/s. The solubility in [6] (read-out: solubility) was > 182 µM.

For the compound `CC(=O)N1c2ccc(NC(=O)CCCCCCC(=O)NO)cc2[C@H](Nc2ccccc2)C[C@@H]1C`, the IC50 in [2] is 100 nM; in [9], 37.7 µM; in series [10] it was 900 nM; in series [24] it was 980 nM. Moreover, the Papp in series [3] turned out to be 3.1 ×10⁻⁶ cm/s. In addition, in series [6] (read-out: solubility), the solubility is 31 µM (≈ 14.5 µg/mL).

Consider `CC(=O)N1c2ccc(-c3ccccc3)cc2[C@H](NC(=O)CCCCCCC(=O)NO)C[C@@H]1C`, for which the IC50 in series [2] came out at 360 nM; in series [9] it was 0.93 µM; in [10], 50 nM; in series [24], 1290 nM. The Papp in series [3] turned out to be 0.8 ×10⁻⁶ cm/s. In addition, the inhibition result in [4], in [7] and in series [11] was “Active” throughout. Further, the solubility in series [6] (read-out: solubility) is > 442 µM.

Take `O=C(CCCCCCC(=O)Nc1ccccc1)NO` [VORINOSTAT]: the IC50 in series [2] is > 50000 nM. Also, the Papp in series [3] was determined as 1.5 ×10⁻⁶ cm/s. In series [6], this compound yielded a solubility of 307 µM (≈ 81.1 µg/mL).
